Results: patent publication US8497245B2, “Trypsin-like serine protease inhibitors, their preparation and use as selective inhibitors of the clotting factors IIa and Xa” (The Medicines Company (Leipzig) GmbH, priority 2010, dated 2013)

These compounds were tested against T1, human Factor Xa (Homo sapiens, UniProt P00742) (assay: Inhibition constants for human factor Xa, chromogenic substrate assay). Details: 25° C., Pefachrome FXa substrate, average of at least three determinations; read-out: Ki h FXa.
T1 construct: human Factor Xa from Enzyme Research Laboratories; purchased Enzyme Research Laboratories
T1 sequence (P00742 235-488 limits assumed): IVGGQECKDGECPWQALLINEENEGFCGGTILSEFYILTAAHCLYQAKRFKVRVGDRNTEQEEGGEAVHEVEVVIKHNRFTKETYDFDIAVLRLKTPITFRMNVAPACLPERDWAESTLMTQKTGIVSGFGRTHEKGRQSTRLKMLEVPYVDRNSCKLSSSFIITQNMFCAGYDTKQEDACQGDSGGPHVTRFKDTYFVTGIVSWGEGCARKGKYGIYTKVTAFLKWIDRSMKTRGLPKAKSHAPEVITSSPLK
T1 sequence (P00742 41-179 partner limits assumed): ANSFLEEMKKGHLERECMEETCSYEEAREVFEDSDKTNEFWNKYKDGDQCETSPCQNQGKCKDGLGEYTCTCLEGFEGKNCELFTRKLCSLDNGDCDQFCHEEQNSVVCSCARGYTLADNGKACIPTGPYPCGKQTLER
Type: biochemical
Procedure: (§1) The inhibitory effect against the individual purified enzymes was determined in analogy to a previously disclosed method (Stürzebecher et al., J. Med. Chem., 40, 3091-3099 (1997)).
(§2) 200 μL of TBS (0.05 M trishydroxymethylaminomethane; 0.154 M NaCl, 2% ethanol, pH 8.0)
(§3) The release of p-nitroaniline (p-NA, the chromogenic product of the proteolytic activity), was determined by change in absorbance at 405 nm. The equilibrium rates were used to calculate the inhibitor/enzyme dissociation constant (Ki values) by parameter fitting in accordance with the rate equation for competitive inhibition using GraFit (version 4 from Erithacus). The results are reported as Ki values (nanomolar) in table 7 and are the average of at least three determinations.

Compound	Ki [µM]
NCc1ccc(Cl)cc1CNC(=O)[C@@H]1C[C@H](N)CN1C(=O)[C@@H](CCC(=O)N1CCOCC1)NS(=O)(=O)Cc1ccccc1 [Compound 2.24]	0.00019
NCc1ccc(Cl)cc1CNC(=O)[C@@H]1C[C@@H](N)CN1C(=O)[C@@H](CCC(=O)N1CCOCC1)NS(=O)(=O)Cc1ccccc1 [Compound 2.25]	0.0011

Each compound was assayed against T2, Human tissue-type plasminogen activator (h t-PA) (Homo sapiens, UniProt P00750) (assay: Inhibition of human tissue-type plasminogen activator (reference enzyme)). Details: Pefachrome tPA substrate; read-out: Ki h t-PA.
T2 construct: purchased Boehringer Ingelheim Actilyse
T2 sequence (P00750 36-562): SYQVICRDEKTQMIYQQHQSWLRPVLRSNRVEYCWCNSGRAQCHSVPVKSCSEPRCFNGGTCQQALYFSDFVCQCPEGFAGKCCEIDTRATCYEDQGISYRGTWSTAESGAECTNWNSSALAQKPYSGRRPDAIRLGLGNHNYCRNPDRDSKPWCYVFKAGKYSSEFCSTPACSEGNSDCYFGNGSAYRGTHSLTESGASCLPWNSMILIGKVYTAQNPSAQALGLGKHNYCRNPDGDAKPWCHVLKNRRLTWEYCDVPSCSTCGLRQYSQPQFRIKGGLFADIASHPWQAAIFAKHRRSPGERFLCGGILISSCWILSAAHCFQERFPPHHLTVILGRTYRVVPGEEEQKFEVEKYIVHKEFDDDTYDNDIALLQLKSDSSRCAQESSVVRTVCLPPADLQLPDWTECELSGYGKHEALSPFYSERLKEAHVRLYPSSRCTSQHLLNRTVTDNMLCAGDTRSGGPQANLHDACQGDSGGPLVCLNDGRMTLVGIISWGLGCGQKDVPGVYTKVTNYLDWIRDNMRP
Type: biochemical
Procedure: The equilibrium rates were used to calculate the inhibitor/enzyme dissociation constant (Ki values) by parameter fitting in accordance with the rate equation for competitive inhibition using GraFit (version 4 from Erithacus).
(§4) Dissociation constants were calculated as described herein.

Compound	Ki [µM]
NCc1ccc(Cl)cc1CNC(=O)[C@@H]1C[C@H](N)CN1C(=O)[C@@H](CCC(=O)N1CCOCC1)NS(=O)(=O)Cc1ccccc1 [Compound 2.24]	> 15
NCc1ccc(Cl)cc1CNC(=O)[C@@H]1C[C@@H](N)CN1C(=O)[C@@H](CCC(=O)N1CCOCC1)NS(=O)(=O)Cc1ccccc1 [Compound 2.25]	> 50

These compounds were tested against T3, Subcomponent "s" of Human Complement Component 1 (h C1s) (Homo sapiens, UniProt P09871) (assay: Inhibition of human C1s (reference enzyme)). Details: S-2314 substrate; read-out: Ki h Cls.
T3 construct: purchased Calbiochem
T3 sequence (P09871 438-688 limits assumed): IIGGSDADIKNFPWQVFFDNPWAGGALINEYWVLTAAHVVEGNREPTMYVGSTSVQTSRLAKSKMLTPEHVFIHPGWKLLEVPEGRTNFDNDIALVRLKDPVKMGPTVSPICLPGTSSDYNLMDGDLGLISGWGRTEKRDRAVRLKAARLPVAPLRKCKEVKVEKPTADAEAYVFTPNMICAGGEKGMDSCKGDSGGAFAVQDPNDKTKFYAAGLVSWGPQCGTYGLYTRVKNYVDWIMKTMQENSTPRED
T3 sequence (P09871 16-437 partner limits assumed): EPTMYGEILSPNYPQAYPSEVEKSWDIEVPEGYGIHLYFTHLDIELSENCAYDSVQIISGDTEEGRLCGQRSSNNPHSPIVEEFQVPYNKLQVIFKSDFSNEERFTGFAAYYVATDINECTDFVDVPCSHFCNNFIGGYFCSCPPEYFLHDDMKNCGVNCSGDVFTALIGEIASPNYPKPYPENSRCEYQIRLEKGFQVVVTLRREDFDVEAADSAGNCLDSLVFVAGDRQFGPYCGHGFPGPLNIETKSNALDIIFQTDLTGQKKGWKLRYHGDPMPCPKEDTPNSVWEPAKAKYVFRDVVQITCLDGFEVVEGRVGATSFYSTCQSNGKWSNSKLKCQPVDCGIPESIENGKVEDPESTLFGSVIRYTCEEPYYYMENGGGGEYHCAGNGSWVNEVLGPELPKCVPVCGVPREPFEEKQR
Type: biochemical
Procedure: as §1, §3, §4

Compound	Ki [µM]
NCc1ccc(Cl)cc1CNC(=O)[C@@H]1C[C@H](N)CN1C(=O)[C@@H](CCC(=O)N1CCOCC1)NS(=O)(=O)Cc1ccccc1 [Compound 2.24]	> 60
NCc1ccc(Cl)cc1CNC(=O)[C@@H]1C[C@@H](N)CN1C(=O)[C@@H](CCC(=O)N1CCOCC1)NS(=O)(=O)Cc1ccccc1 [Compound 2.25]	> 100

Each compound was assayed against T4, Human urinary kallikrein (h uKK) (Homo sapiens, UniProt P06870) (assay: Inhibition of human urinary kallikrein (reference enzyme)). Details: S-2266 substrate.
T4 construct: purchased Lee Biosolutions
T4 sequence (P06870 25-262): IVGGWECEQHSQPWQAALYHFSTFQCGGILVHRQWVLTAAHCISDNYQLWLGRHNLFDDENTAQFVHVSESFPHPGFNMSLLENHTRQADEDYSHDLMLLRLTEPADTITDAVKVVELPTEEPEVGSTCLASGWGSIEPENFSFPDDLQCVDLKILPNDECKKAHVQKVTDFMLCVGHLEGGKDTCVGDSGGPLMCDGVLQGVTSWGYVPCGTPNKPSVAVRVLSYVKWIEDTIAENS
Type: biochemical
Procedure: as §1, §3, §4

Compound	Ki [µM]
NCc1ccc(Cl)cc1CNC(=O)[C@@H]1C[C@H](N)CN1C(=O)[C@@H](CCC(=O)N1CCOCC1)NS(=O)(=O)Cc1ccccc1 [Compound 2.24]	> 50
NCc1ccc(Cl)cc1CNC(=O)[C@@H]1C[C@@H](N)CN1C(=O)[C@@H](CCC(=O)N1CCOCC1)NS(=O)(=O)Cc1ccccc1 [Compound 2.25]	> 50

The compounds below were run against T5, Human Activated Protein C (h aPC) (Homo sapiens, UniProt P04070) (assay: Inhibition of human activated protein C (reference enzyme)). Details: Pefachrome PCa substrate.
T5 construct: purchased Enzyme Research Laboratories
T5 sequence (P04070 212-450 limits assumed): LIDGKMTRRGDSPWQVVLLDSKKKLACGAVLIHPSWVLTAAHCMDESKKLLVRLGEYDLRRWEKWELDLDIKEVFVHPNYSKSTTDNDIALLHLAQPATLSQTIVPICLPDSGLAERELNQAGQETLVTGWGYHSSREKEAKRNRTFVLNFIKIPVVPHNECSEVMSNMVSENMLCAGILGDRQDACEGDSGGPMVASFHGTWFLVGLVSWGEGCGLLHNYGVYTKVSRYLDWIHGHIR
T5 sequence (P04070 43-197 partner limits assumed): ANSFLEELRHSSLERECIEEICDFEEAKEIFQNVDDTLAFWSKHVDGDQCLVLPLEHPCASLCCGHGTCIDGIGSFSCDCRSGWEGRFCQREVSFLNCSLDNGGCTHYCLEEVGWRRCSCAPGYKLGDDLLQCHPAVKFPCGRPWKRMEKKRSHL
Type: biochemical
Procedure: as §1, §3, §4

Compound	Ki [µM]
NCc1ccc(Cl)cc1CNC(=O)[C@@H]1C[C@H](N)CN1C(=O)[C@@H](CCC(=O)N1CCOCC1)NS(=O)(=O)Cc1ccccc1 [Compound 2.24]	> 200
NCc1ccc(Cl)cc1CNC(=O)[C@@H]1C[C@@H](N)CN1C(=O)[C@@H](CCC(=O)N1CCOCC1)NS(=O)(=O)Cc1ccccc1 [Compound 2.25]	> 100

These compounds were tested against T6, Human urokinase type plasminogen activator (h u-PA) (Homo sapiens, UniProt P00749) (assay: Inhibition of human urokinase type plasminogen activator (reference enzyme)). Details: H-Glu-Gly-Arg-pNA substrate.
T6 construct: purchased MEDAC GmbH Urokinase HS medac
Type: biochemical
Procedure: as §1, §3, §4

Compound	Ki [µM]
NCc1ccc(Cl)cc1CNC(=O)[C@@H]1C[C@H](N)CN1C(=O)[C@@H](CCC(=O)N1CCOCC1)NS(=O)(=O)Cc1ccccc1 [Compound 2.24]	> 100
NCc1ccc(Cl)cc1CNC(=O)[C@@H]1C[C@@H](N)CN1C(=O)[C@@H](CCC(=O)N1CCOCC1)NS(=O)(=O)Cc1ccccc1 [Compound 2.25]	> 30

These compounds were tested against T7, Human plasmin (h plasmin) (Homo sapiens, UniProt P00747) (assay: Inhibition of human plasmin (reference enzyme)). Details: Chromozym PL substrate.
T7 construct: purchased Calbiochem
T7 sequence (P00747 581-810 limits assumed): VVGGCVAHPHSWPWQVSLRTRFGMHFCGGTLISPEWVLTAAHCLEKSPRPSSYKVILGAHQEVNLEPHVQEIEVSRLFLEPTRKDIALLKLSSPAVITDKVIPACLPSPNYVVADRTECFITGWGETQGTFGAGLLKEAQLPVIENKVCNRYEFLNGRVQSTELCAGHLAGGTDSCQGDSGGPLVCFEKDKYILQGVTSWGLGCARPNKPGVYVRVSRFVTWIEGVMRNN
T7 sequence (P00747 97-580 partner limits assumed): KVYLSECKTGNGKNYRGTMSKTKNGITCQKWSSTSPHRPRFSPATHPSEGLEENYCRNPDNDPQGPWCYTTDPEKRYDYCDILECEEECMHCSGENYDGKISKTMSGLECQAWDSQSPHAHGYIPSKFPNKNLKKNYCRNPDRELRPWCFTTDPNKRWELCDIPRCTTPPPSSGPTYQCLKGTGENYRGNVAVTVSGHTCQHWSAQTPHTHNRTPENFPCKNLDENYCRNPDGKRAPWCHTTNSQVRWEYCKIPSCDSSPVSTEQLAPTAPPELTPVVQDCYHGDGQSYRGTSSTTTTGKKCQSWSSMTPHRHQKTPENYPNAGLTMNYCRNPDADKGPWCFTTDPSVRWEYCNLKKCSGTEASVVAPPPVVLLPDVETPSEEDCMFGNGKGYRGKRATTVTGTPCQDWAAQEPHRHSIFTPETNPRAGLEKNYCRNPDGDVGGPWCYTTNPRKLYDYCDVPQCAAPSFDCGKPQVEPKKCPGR
Type: biochemical
Procedure: as §1, §3, §4

Compound	Ki [µM]
NCc1ccc(Cl)cc1CNC(=O)[C@@H]1C[C@H](N)CN1C(=O)[C@@H](CCC(=O)N1CCOCC1)NS(=O)(=O)Cc1ccccc1 [Compound 2.24]	> 15
NCc1ccc(Cl)cc1CNC(=O)[C@@H]1C[C@@H](N)CN1C(=O)[C@@H](CCC(=O)N1CCOCC1)NS(=O)(=O)Cc1ccccc1 [Compound 2.25]	> 10

Each compound was assayed against T8, Subcomponent "r" of Human Complement Component 1 (h C1r) (Homo sapiens, UniProt P00736) (assay: Inhibition of human C1r (reference enzyme)). Details: S-2314 substrate; read-out: Ki h Clr.
T8 construct: purchased Calbiochem
T8 sequence (P00736 464-705 limits assumed): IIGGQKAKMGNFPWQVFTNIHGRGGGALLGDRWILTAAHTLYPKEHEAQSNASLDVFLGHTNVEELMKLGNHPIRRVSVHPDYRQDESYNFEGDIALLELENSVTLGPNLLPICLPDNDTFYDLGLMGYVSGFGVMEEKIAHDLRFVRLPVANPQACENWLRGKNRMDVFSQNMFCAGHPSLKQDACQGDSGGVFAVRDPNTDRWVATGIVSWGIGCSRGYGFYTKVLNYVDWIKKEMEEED
T8 sequence (P00736 18-463 partner limits assumed): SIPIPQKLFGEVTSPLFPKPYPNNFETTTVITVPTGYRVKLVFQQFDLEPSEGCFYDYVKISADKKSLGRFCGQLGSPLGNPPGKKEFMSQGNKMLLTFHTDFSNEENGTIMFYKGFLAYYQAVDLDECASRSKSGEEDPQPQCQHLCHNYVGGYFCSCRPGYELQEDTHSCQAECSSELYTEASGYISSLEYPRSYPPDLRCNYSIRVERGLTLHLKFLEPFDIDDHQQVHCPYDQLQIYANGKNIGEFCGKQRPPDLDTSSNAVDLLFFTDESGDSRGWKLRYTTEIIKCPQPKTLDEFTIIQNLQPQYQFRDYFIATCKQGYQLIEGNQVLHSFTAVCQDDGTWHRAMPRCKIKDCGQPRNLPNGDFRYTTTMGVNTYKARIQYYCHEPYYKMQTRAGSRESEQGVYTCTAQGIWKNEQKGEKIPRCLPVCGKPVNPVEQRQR
Type: biochemical
Procedure: as §1, §3, §4

Compound	Ki [µM]
NCc1ccc(Cl)cc1CNC(=O)[C@@H]1C[C@H](N)CN1C(=O)[C@@H](CCC(=O)N1CCOCC1)NS(=O)(=O)Cc1ccccc1 [Compound 2.24]	> 50
NCc1ccc(Cl)cc1CNC(=O)[C@@H]1C[C@@H](N)CN1C(=O)[C@@H](CCC(=O)N1CCOCC1)NS(=O)(=O)Cc1ccccc1 [Compound 2.25]	> 20

These compounds were tested against T9, human factor IIa (human alpha-thrombin) (Homo sapiens, UniProt P00734) (assay: Inhibition constants for human factor IIa, chromogenic substrate assay). Details: 25° C., Pefachrome tPA substrate, average of at least three determinations; read-out: Ki h FIIa.
T9 construct: human alpha-thrombin from Enzyme Research Laboratories; purchased Enzyme Research Laboratories
Type: biochemical
Procedure: as §1, §2, §3

Compound	Ki [µM]
NCc1ccc(Cl)cc1CNC(=O)[C@@H]1C[C@H](N)CN1C(=O)[C@@H](CCC(=O)N1CCOCC1)NS(=O)(=O)Cc1ccccc1 [Compound 2.24]	0.00128
NCc1ccc(Cl)cc1CNC(=O)[C@@H]1C[C@@H](N)CN1C(=O)[C@@H](CCC(=O)N1CCOCC1)NS(=O)(=O)Cc1ccccc1 [Compound 2.25]	0.0047

Each compound was assayed against T10, Human plasma kallikrein (h PK) (Homo sapiens, UniProt P03952) (assay: Inhibition of human plasma kallikrein (reference enzyme)). Details: S2302 substrate.
T10 construct: purchased Enzyme Research Laboratories
T10 sequence (P03952 391-638 limits assumed): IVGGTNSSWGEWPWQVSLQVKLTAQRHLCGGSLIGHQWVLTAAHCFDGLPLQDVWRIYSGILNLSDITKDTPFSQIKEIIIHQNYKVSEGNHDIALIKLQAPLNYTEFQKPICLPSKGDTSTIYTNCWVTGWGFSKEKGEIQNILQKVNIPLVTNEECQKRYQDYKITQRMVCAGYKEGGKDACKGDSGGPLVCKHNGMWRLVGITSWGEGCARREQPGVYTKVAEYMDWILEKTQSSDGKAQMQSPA
T10 sequence (P03952 20-390 partner limits assumed): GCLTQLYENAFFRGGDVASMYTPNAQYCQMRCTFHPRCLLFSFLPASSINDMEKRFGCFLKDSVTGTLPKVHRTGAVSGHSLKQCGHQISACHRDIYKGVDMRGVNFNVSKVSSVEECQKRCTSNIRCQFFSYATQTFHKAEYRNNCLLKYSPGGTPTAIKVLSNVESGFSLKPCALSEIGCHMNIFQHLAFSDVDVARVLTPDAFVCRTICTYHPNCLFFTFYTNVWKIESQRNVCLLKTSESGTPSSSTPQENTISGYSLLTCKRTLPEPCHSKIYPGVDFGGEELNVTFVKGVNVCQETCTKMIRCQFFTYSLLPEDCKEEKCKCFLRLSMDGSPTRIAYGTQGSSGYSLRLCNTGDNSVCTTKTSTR
Type: biochemical
Procedure: as §1, §3, §4

Compound	Ki [µM]
NCc1ccc(Cl)cc1CNC(=O)[C@@H]1C[C@H](N)CN1C(=O)[C@@H](CCC(=O)N1CCOCC1)NS(=O)(=O)Cc1ccccc1 [Compound 2.24]	1.21
NCc1ccc(Cl)cc1CNC(=O)[C@@H]1C[C@@H](N)CN1C(=O)[C@@H](CCC(=O)N1CCOCC1)NS(=O)(=O)Cc1ccccc1 [Compound 2.25]	2.58
